Assay results published in paper PMC9921564, “Novel Indole-Containing Hybrids Derived from Millepachine: Synthesis, Biological Evaluation and Antitumor Mechanism Study” (Molecules, 2023).

Legend:
[1] = metabolic stability in human liver microsomes; assay type: in vitro ADME
Description: Metabolic stability is one of the most important properties in drug development. In this study, commercially available human liver microsomes were used to evaluate the metabolic stability of compound 14b. After incubation with human liver microsomes at 37 °C in vitro for an indicated time in a buffer solution containing a NADPH regenerating system, the residue of 14b was monitored by HPLC. CA-4 was used as the reference compound. […] As well known, a short half-life means a low bioavailability in vivo and is required for frequent administration with a high dose, which might result in drug accumulation and may produce related toxicity.

[2] = tested on: Caski (human epithelial cervical cancer cell line); experiment: CCK-8 antiproliferative assay, Caski; assay type: cell-based; conditions: Ca-Ski, 48 h, read-out: IC50, Mean ± SE, Caski
[3] = tested on: C42B (human prostate cancer line); experiment: CCK-8 antiproliferative assay, C42B; assay type: cell-based; conditions: 48 h, read-out: IC50, Mean ± SE, C42B
tubulin = target: T1, tubulin (Sus scrofa, UniProt P02554); experiment: in vitro tubulin polymerization inhibition assay; assay type: biochemical
T1 construct: purchased cytoskeleton, Inc. BK011P
Description: Tubulin–microtubule homeostasis is crucial for cell mitosis.
Figure 2 Effect of compound 14b on tubulin. […] The experiments were performed at least three times, and representative images are shown. Scale bars are 10 μm. […] The backbone of tubulin is shown in ribbon representation (α-tubulin, yellow; β-tubulin, green). […] The data were shown as mean ± SE (standard error) of at least three independent experiments.
S Ⅳ. Biological evaluation methods
The cells grown in logarithmical phase were seeded in 96-well plates with the density of 5×10^3/well.
After 24 h, the medium containing different concentrations of tested compounds were added for another 48 h. Then, CCK-8 reagents were added to cells and continued to culture for 2 h. The optical density was recorded with a microplate reader at 570 nm (Thermo Scientific, Varioskan LUX). All the experiments were repeated independently at least three times and the IC50 values were calculated […]
S2. In vitro tubulin polymerization inhibition assay
The in vitro tubulin polymerization inhibition assay was conducted according to the manufacturer ’s instruction (cytoskeleton, cat. no. BK011P). Briefly, 5 μL of the tested compounds at the indicated

[4] = tested on: five kinds of human cancer cell lines (A549, Caski, HepG2, C42B, MCF-7); experiment: CCK-8 assay, panel of five human cancer cell lines; assay type: cell-based; conditions: 48 h, read-out: IC50 values, range over five human cancer cell lines
A549 cells = experiment: intracellular ROS detection by DCFH-DA; assay type: cell-based, human; conditions: A549, 10, 20 and 50 nM, 12 h
From the text: The intrinsic mitochondrial pathway is one of the most well-studied mechanisms relevant to cell apoptosis. ROS accumulation and mitochondrial membrane potential (MMP) alteration play crucial roles in this pathway. In this study, a fluorescent dye including DCFH-DA and JC-1 was used to monitor the intracellular ROS and MMP, respectively.
Figure 5 ROS accumulation and MMP alteration induced by compound 14b. (A,B) The intracellular ROS detection by DCFH-DA after A549 cells treated with compound 14b at indicated concentrations for 12 h. (C,D) The detection of MMP monitored by JC-1 dye after A549 cells treated with compound 14b at the concentrations of 10, 20 and 50 nM for 12 h. […]
samples were fixed in ice-cold 70% ethanol overnight and removed with ice-cold PBS for three times. […] After the incubation, the prepared cell samples were immediately analyzed. Almost 10,000 events were detected by flow cytometry (Beckman Coulter, CytoFlex LX). The data regarding the number of cells in different phases of the cell cycle were or apoptotic cells were analyzed by […]
Caspase-3 activity was measured according to the manufacturer ’s instructions using a GreenNuc™ Caspase-3 assay kit for live cells (Beyotime, China). […] After incubation, the fluorescence intensity (excitation wavelength:
485 nm, emission wavelength: 515 nm) was recorded using a multifunctional microplate reader (Thermo Scientific, Varioskan LUX). […]

T1 sequence (P02554 whole entry): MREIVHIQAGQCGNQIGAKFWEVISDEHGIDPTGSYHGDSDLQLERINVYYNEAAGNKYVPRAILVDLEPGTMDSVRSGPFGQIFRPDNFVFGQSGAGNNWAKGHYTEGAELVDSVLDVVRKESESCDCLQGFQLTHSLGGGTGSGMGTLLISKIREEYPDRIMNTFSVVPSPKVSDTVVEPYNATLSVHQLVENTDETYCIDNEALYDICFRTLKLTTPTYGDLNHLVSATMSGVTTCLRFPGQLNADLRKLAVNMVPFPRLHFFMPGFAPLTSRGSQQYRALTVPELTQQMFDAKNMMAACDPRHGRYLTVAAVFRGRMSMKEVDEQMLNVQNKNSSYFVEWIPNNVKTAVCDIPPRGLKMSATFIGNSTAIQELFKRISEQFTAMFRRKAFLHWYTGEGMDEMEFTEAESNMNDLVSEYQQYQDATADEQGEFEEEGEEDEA
T1 sequence (P02550 whole entry partner): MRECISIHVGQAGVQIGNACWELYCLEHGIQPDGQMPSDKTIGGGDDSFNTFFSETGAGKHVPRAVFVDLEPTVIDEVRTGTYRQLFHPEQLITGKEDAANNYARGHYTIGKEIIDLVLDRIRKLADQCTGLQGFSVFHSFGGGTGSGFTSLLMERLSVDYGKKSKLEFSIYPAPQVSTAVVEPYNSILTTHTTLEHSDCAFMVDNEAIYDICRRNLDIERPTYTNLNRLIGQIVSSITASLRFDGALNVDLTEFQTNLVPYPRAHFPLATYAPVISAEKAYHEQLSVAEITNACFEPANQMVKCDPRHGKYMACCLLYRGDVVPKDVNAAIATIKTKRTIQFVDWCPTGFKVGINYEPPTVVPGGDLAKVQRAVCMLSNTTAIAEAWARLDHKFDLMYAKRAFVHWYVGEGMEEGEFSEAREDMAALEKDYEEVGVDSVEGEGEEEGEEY

COc1ccc(C(=O)c2ccc3c(ccn3C)c2)c2c1C=CC(C)(C)O2 [compound 14b, (5-methoxy-2,2-dimethyl-2H-chromen-8-yl)(1-methyl-1H-indol-5-yl)methanone]
half-life [1]: 3.3 h | metabolic stability [1]: relatively stable in the liver microsomes | Remaining% ([1]; 37 °C, NADPH regenerating system, 180 min): 56.17% | remaining at 0.5 h ([1]; human, liver microsomes, 37 °C, NADPH regenerating system, 30 min): 96.2% | remaining at 1 h ([1]; human, liver microsomes, 37 °C, NADPH regenerating system, 60 min): 91.4% | remaining at 1.5 h ([1]; human, liver microsomes, 37 °C, NADPH regenerating system, 90 min): 84.1% | remaining at 2 h ([1]; human, liver microsomes, 37 °C, NADPH regenerating system, 120 min): 74.5% | remaining at 2.5 h ([1]; human, liver microsomes, 37 °C, NADPH regenerating system, 150 min): 67.8% | remaining at 3 h ([1]; human, liver microsomes, 37 °C, NADPH regenerating system, 180 min): 50.6% | remaining at 4 h ([1]; human, liver microsomes, 37 °C, NADPH regenerating system, 240 min): 43.4% | IC50 [2]: 37 ± 3 nM | IC50 [3]: 51 ± 5 nM | effect on tubulin polymerization (tubulin; 5 μM, Figure 2A,B): inhibited tubulin polymerization in a colchicine-like manner | IC50 (tubulin; in vitro, area under the curve): 2070 ± 150 nM | IC50 [4]: 22 to 74 nM | level of ROS (A549 cells): significantly rose abruptly in a dose-dependent manner
